Laboratory results taken from ChEMBL document CHEMBL1221167, “Small-molecule inhibition of siderophore biosynthesis in Mycobacterium tuberculosis and Yersinia pestis” (Nat Chem Biol, 2005).
Activity calls are given as the source filed them. The calls are words filed in the database; no cut-off is given here.

Columns and labels:
[1] = target: T1, AMP-binding enzyme family protein (Yersinia pestis) (UniProt Q56950); assay: Inhibition of His6-tagged Yersinia pestis YbtE-mediated [3H]salicyl-ypArCP-H6 formation up to 400 uM after 1.5 hrs by microplate counting
T1 sequence (whole entry): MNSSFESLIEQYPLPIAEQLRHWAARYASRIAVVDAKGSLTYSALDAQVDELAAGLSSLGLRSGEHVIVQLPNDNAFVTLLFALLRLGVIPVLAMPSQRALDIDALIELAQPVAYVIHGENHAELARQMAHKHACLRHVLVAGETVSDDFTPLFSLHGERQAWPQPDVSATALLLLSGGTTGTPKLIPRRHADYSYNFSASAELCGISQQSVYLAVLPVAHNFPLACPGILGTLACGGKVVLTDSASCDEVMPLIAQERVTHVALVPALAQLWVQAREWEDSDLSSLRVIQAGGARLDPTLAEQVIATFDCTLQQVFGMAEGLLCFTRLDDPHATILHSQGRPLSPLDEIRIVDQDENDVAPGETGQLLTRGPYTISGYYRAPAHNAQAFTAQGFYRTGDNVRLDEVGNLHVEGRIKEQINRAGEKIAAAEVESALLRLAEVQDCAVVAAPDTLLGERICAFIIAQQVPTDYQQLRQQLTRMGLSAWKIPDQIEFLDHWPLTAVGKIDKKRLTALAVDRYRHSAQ

[2] = tested on: Mycobacterium tuberculosis; assay: Antimicrobial activity against Mycobacterium tuberculosis H37Rv assessed as inhibition of bacterial growth in iron-deficient medium after 8 days; type: functional, organism-based; conditions: 192 h
Yersinia pestis [3] = assay: Antimicrobial activity against Yersinia pestis assessed as inhibition of bacterial growth in iron-supplemented medium after 22 hrs; type: functional, organism-based
[4] = tested on: Mycobacterium tuberculosis; assay: Antimicrobial activity against Mycobacterium tuberculosis H37Rv assessed as inhibition of bacterial growth in iron-supplemented medium after 8 days; type: functional, organism-based; conditions: 192 h
Yersinia pestis [5] = assay: Antimicrobial activity against Yersinia pestis assessed as inhibition of bacterial growth in iron-deficient medium after 22 hrs; type: functional, organism-based
Pyochelin synthase PchD = target: T2, Pyochelin synthase PchD (Pseudomonas aeruginosa, UniProt Q9HWG3); assay: Inhibition of adenylation activity of Pseudomonas aeruginosa PchD after 15 mins by ATP-[32P]pyrophosphate exchange assay
T2 sequence (Q9HWG3 whole entry): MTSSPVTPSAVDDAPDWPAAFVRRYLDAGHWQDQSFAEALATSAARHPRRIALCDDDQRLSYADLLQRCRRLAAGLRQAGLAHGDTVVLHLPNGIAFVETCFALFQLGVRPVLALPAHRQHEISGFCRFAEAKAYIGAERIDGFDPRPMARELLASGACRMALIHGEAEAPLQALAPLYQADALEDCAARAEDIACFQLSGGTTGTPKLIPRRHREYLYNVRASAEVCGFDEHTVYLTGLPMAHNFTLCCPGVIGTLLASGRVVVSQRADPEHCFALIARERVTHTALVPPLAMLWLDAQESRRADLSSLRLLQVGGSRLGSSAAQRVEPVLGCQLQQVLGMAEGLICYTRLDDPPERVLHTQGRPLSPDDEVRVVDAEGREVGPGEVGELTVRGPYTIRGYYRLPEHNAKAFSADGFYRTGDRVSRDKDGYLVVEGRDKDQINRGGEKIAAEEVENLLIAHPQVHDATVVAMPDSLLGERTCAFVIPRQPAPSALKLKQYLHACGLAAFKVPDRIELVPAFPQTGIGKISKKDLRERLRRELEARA

[6] = tested on: Mycobacterium tuberculosis; assay: Inhibition of siderophore production in Mycobacterium tuberculosis H37Rv at 200 uM after 12 hrs by radiometric assay; type: functional, organism-based

Compound	inhibition [1]	IC50 [2]	IC50 (Yersinia pestis [3])	IC50 [4]	IC50 (Yersinia pestis [5])	IC50 (Pyochelin synthase PchD)	inhibition [6]
Nc1ncnc2c1ncn2[C@@H]1O[C@H](COS(N)(=O)=O)[C@@H](O)[C@H]1O	inactive						
Nc1ncnc2c1ncn2[C@@H]1O[C@H](COS(=O)(=O)NC(=O)c2ccccc2O)[C@@H](O)[C@H]1O		2.2 µM	> 400 µM	39.9 µM	51.2 µM	0.0125 µM	Active
